Our source for the IC50 values is ChEMBL document CHEMBL1136837, “Unified QSAR approach to antimicrobials. 4. Multi-target QSAR modeling and comparative multi-distance study of the giant components of antiviral drug-drug complex networks” (Bioorg Med Chem, 2009).

By IC50 is commonly meant the midpoint of a concentration-inhibition curve. A low value points to higher potency.

Starred links: 1 amine or outer side, 2 acyl side, 3 side chain; linkers in the order of their positions; H or OH if unused. Non-standard residues stand in square brackets, D forms with d. Residues, ends and D or L forms follow the SMILES beside them. *: point of attachment. Hyp(quinolin-4-yl) = O=C(O)[C@@H]1C[C@@H](Oc2ccnc3ccccc23)CN1; CH2(1-naphthyl) = c1ccc2c(C*)cccc2c1; Hyp = O=C(O)[C@@H]1C[C@@H](O)CN1; X8 = CCCN(N*)C(=O)NN(C)c1ccccc1; azaNva = CCCN(N[*:1])C(=O)[*:2]; Chg = N[C@H](C(=O)O)C1CCCCC1; X7 = C[C@H](N*)C1CCCCC1; Ac3c = NC1(C(=O)O)CC1; Bn = c1ccc(C*)cc1

The first assay deals with Human immunodeficiency virus 1. Briefly: Antiviral activity against HIV1.
Details: not given
Format: functional, organism-based.
`C=C(C)[C@@H]1CC[C@]2(C(=O)NCCCCCCCC(=O)N[C@@H](CC(C)C)[C@H](O)CC(=O)O)CC[C@]3(C)[C@H](CC[C@@H]4[C@@]5(C)CC[C@H](O)C(C)(C)[C@@H]5CC[C@]43C)[C@@H]12` had an IC50 of 0.33 µM. In the case of `C=C(C)[C@@H]1CC[C@]2(C(=O)N[C@@H](CC(C)C)C(=O)O)CC[C@]3(C)[C@H](CC[C@@H]4[C@@]5(C)CC[C@H](O)C(C)(C)[C@@H]5CC[C@]43C)[C@@H]12`, the IC50 was 3.22 µM. In turn, `O=C(/C=C(\O)c1nnn[nH]1)c1c[nH]c2ccccc12` came in with an IC50 of 1.9 µM. Still for that read-out and setting: to `O=C1CSC(c2c(F)cccc2Cl)N1c1cccc(Br)n1` (centres undefined) belongs 0.064 µM. As to `CCOC(=O)c1cc2ccccc2n1S(=O)(=O)c1ccccc1`, the IC50 was found to be 200 µM. Compound `CC(C)(C)c1ccc(Sc2c(C(N)=O)[nH]c3ccc(Cl)cc23)cc1` came in with an IC50 of 8 µM.

On to `Nc1nc2c(ncn2[C@@H]2S[C@H](CO)C=C2F)c(=O)[nH]1`, for which half-maximal inhibition (IC50) required 80.5 µM. As for `C=C(C)[C@@H]1CC[C@]2(C(=O)NCCC(=O)N[C@@H](CC(C)C)C(=O)O)CC[C@]3(C)[C@H](CC[C@@H]4[C@@]5(C)CC[C@H](O)C(C)(C)[C@@H]5CC[C@]43C)[C@@H]12`, 39 µM corresponded to half-maximal inhibition (IC50). On the same count and under the same terms, to `Cc1ncc([N+](=O)[O-])n1CCOC(c1ccccc1)c1ccc(Cl)c(Cl)c1` (centres undefined) belongs 97 µM; to `O=c1ccn([C@H]2S[C@@H](CO)C=C2F)c(=O)[nH]1`, 100 µM. The same measure, in the same setting: to `O=C(/C=C(\O)c1nnn[nH]1)c1c[nH]c2ccc(F)cc12` belongs 1.8 µM; to `Cc1c(CO)c(=O)oc2c3c(ccc12)OC(C)(C)[C@H](OC(=O)C12CCC(C)(C(=O)O1)C2(C)C)[C@@H]3OC(=O)C12CCC(C)(C(=O)O1)C2(C)C` (some centres undefined), 24.9 µM. For the compound `C[C@H]1O[C@@H](n2c(Cl)c(C#N)c3cc(Cl)c(Cl)cc32)[C@H](O)[C@@H]1O`, the IC50 turned out to be 32 µM.

The compound `Nc1nc2c(ncn2C2C=CC(OCP(=O)(O)OP(=O)(O)C(Br)(Br)P(=O)(O)O)C2)c(=O)[nH]1` (centres undefined) had a 50% inhibitory concentration (IC50) of 200 µM.

For `Cc1cn([C@H]2S[C@@H](CO)C=C2F)c(=O)[nH]c1=O`, the IC50 was 100 µM. Same read-out and setting: to `O=C1CSC(c2c(F)cccc2F)N1c1ccc(Cl)cn1` (centres undefined) belongs 7.19 µM; to `NNC(=O)c1[nH]c2ccc(Cl)cc2c1Sc1cc(Cl)ccc1N`, 13 µM; to `COC(=O)c1[nH]c(-c2ccc3c(n2)C(=O)C(NC(C)=O)=CC3=O)c2nc3ccccc3c-2c1C`, 15.1 µM. Turning to `NNC(=O)c1[nH]c2ccc(Cl)cc2c1Sc1ccc(F)cc1`, the IC50 worked out at 5 µM. `C=C[C@@]1(CO)C=C[C@H](n2cc(C)c(=O)[nH]c2=O)O1` returned a half-inhibitory concentration (IC50) of 100 µM. `CC(=O)c1c(Cl)n([C@H]2C[C@H](O)[C@@H](CO)O2)c2cc(Cl)c(Cl)cc12`: half-maximal inhibition (IC50) was put at 8 µM.

In the case of `CCO/N=C(\c1ccc(Br)cc1)C1CCN(C2(C)CCN(C(=O)c3c(C)ccc[n+]3[O-])CC2)CC1`, the IC50 is 0.0017 µM. In the case of `Nc1ccn([C@H]2O[C@H](CO)C=C2F)c(=O)n1`, the IC50 came out at 100 µM. The same measure, in the same setting: with `O=C(O)/C(O)=C/C(=O)c1cccc(C(=O)/C=C(\O)C(=O)O)c1` the figure was 1.83 µM; with `NC(=O)c1[nH]c2ccc(Cl)cc2c1S(=O)(=O)c1cc(Cl)ccc1N`, 0.3 µM; with `O=C(OC(C(=O)O)C(OC(=O)c1cccs1)C(=O)O)c1cccs1` (centres undefined), 10 µM. In the case of `Cc1cc(=O)oc2c3c(c(CO)cc12)OC(C)(C)[C@H](OC(=O)[C@@]12CC[C@](C)(C(=O)O1)C2(C)C)[C@@H]3OC(=O)[C@@]12CC[C@](C)(C(=O)O1)C2(C)C`, 15 µM corresponded to half-maximal inhibition (IC50). Same read-out and setting: to `Cc1c(C(C)c2c(F)cccc2F)nc(NC2CCCC2)[nH]c1=O` (centres undefined) belongs 0.035 µM. In turn, `Nc1ncnc2c1ncn2C1C=CC(OCP(=O)(O)OP(=O)(O)OP(=O)(O)O)C1` (centres undefined) came in with a 50% inhibitory concentration (IC50) of 0.2 µM. On the same count and under the same terms, to `C#C[C@@]1(CO)C=C[C@H](n2cc(C)c(=O)[nH]c2=O)O1` [CENSAVUDINE] belongs 0.25 µM; to `CC(=O)c1ccc2[nH]c(C(N)=O)c(S(=O)(=O)c3cc(C)cc(C)c3)c2c1`, 0.015 µM. On the same count and under the same terms, with `COC(=O)C(C)NP(=O)(OC[C@@H]1C=C[C@H](n2cc(C)c(=O)[nH]c2=O)O1)Oc1ccc(Br)cc1` (some centres undefined) [STAMPIDINE] the figure was 0.003 µM; with `CCn1c(C(=O)CC(=O)C(=O)OC)cc2ccccc21`, 60 µM. Still for that read-out and setting: with `Cc1cccc(S(=O)(=O)c2c(C(N)=O)[nH]c3ccc(Cl)cc23)c1` the figure was 0.001 µM; with `C[C@H]1O[C@@H](n2c(Cl)c(C=O)c3cc(Cl)c(Cl)cc32)[C@H](O)[C@@H]1O`, 20 µM; with `OC[C@@H]1O[C@@H](n2cnc3c(O)ncnc32)CC1(F)F`, 100 µM.

On to `Nc1ncnc2c1ncn2C1C=CC(OCP(=O)(O)OP(=O)(O)C(F)(F)P(=O)(O)OP(=O)(O)COC2C=CC(n3cnc4c(N)ncnc43)C2)C1` (centres undefined), for which the half-maximal inhibitory concentration (IC50) turned out to be 20 µM. `COc1ccc(F)cc1-c1nc2c(N)cccc2n1Cc1c(F)cccc1F` had a 50% inhibitory concentration (IC50) of 2.71 µM. `O=C(O)/C(O)=C/C(=O)c1c[nH]c2ccccc12` yielded an IC50 of 1.43 µM. On the same count and under the same terms, with `O=C(OC(C(=O)O)C(OC(=O)c1ccsc1)C(=O)O)c1ccsc1` (centres undefined) the figure was 10 µM; with `CCCCOC(=O)c1cc2c([nH]c3ccccc32)c(-c2ccc3c(n2)C(=O)C(NC(=O)CCC)=CC3=O)n1` [LAV12], 5.8 µM; with `Nc1nc2c(ncn2C2C=CC(OCP(=O)(O)OP(=O)(O)OP(=O)(O)O)C2)c(=O)[nH]1` (centres undefined), 0.3 µM. On the same count and under the same terms, to `Cc1ccnc(N2C(=O)CSC2c2c(F)cccc2Cl)c1` (centres undefined) belongs 0.099 µM.

The next assay relates to Hepatitis C virus. Briefly: Antiviral activity against Hepatitis C virus. Type of assay: functional, organism-based, Hepacivirus hominis.
Details: not given
Compound `O=C(O)[C@H](Cc1ccccc1)N(Cc1ccc(-c2nccs2)cc1)C(=O)c1ccc(Cl)cc1Cl` (stereo in doubt; form 1) had a 50% inhibitory concentration (IC50) of 0.62 µM.

Staying with this assay, now noted: Hepatitis C virus.
In turn, `CNc1nc(-c2cc(O[C@@H]3C[C@H]4C(=O)N[C@]5(C(=O)O)C[C@H]5/C=C\CCCCC[C@H](NC(=O)OC5CCCC5)C(=O)N4C3)c3ccc(OC)cc3n2)cs1` returned an IC50 of 0.0025 µM. The compound `CC(=O)N[C@H](C(=O)N[C@H](C(=O)N1C[C@H](Oc2cccc(-c3cccc([N+](=O)[O-])c3)c2)C[C@H]1C(=O)NC1(C(=O)O)CC1)C(C)C)C1CCCCC1` came in with a half-maximal inhibitory concentration (IC50) of 4 µM.

Consider `N#Cc1ccccc1COc1cccc(C(=O)/C=C(\O)C(=O)O)c1`, for which the concentration for half-maximal inhibition (IC50) worked out at 0.23 µM. On the same count and under the same terms, with `Cc1cn([C@@H]2O[C@H](CO)[C@@H](O)[C@@]2(C)O)c2ncnc(N)c12` the figure was 34 µM. On the same count and under the same terms, with `CCC[C@@]1(CC(=O)O)OCCc2c1[nH]c1c(Cl)ccc(CC)c21` the figure was 15 µM; with `CCCC1(CC(=O)OCC)OCCc2c1[nH]c1c(C)ccc(C#N)c21` (centres undefined), 30 µM; with `CC(=O)N[C@H](C(=O)N[C@H](C(=O)N1C[C@H](OCc2cccc3ccccc23)C[C@H]1C(=O)N[C@@]1(C(=O)O)C[C@@H]1C(C)C)C(C)C)C1CCCCC1`, 640 µM. On the same count and under the same terms, to `COc1ccc2c(O[C@@H]3C[C@H]4C(=O)N[C@]5(C(=O)O)C[C@H]5/C=C\CCCCC[C@H](NC(=O)OC(C)(C)C)C(=O)N4C3)cc(-n3ccc(C)n3)nc2c1` belongs 0.003 µM; to `COc1ccc2c(O[C@@H]3C[C@H]4C(=O)N[C@]5(C(=O)O)C[C@H]5/C=C\CCCCC[C@H](NC(=O)OC(C)(C)C)C(=O)N4C3)cc(-n3cccc3)nc2c1`, 0.0051 µM. `CC(=O)N[C@H](C(=O)N[C@H](C(=O)N1C[C@H](Oc2ccnc3ccccc23)C[C@H]1C(=O)NC1(C(=O)O)CC1)C(C)C)C1CCCCC1` (Ac-[Chg]V[Hyp(quinolin-4-yl)][Ac3c]-OH): half-maximal inhibition (IC50) was put at 2.2 µM. Same read-out and setting: with `CC(=O)N[C@H](C(=O)N[C@H](C(=O)N1C[C@H](OCc2cccc3ccccc23)C[C@H]1C(=O)N[C@@]1(C(=O)O)C[C@@H]1C)C(C)C)C1CCCCC1` the figure was 180 µM; with `N#Cc1c(Cl)cccc1COc1cccc(C(=O)/C=C(\O)C(=O)O)c1`, 0.11 µM. With `CC(C)COC(=O)N[C@@H](CCC(=O)O)C(=O)N[C@@H](CC(C)C)C(=O)N[C@@H](CS)C(=O)NCCc1ccc(C(=O)O)cc1`, the IC50 worked out at 2 µM.

`N#Cc1ccc(CN(C(=O)c2ccc(Cl)cc2Cl)[C@@H](Cc2ccccc2)C(=O)O)cc1` registered a concentration for half-maximal inhibition (IC50) of 8 µM. Take `COC(=O)C(=O)CC(=O)c1ccccc1`: the IC50 worked out at 50 µM. On the same count and under the same terms, to `CC(=O)N[C@H](C(=O)N[C@H](C(=O)N1C[C@H](OCc2cccc3ccccc23)C[C@H]1C(=O)NC1(C(=O)O)CC1)C(C)C)C1CCCCC1` (Ac-[Chg]V[Hyp](CH2(1-naphthyl))[Ac3c]-OH) belongs 4 µM; to `N#Cc1ccc(Br)cc1COc1cccc(C(=O)/C=C(\O)C(=O)O)c1`, 0.1 µM. In the case of `CC(=O)N[C@H](C(=O)N[C@H](C(=O)N1C[C@H](Oc2cccc(Br)c2)C[C@H]1C(=O)NC1(C(=O)O)CC1)C(C)C)C1CCCCC1`, the IC50 stood at 52 µM. With `CCCN(NC(=O)[C@@H]1C[C@@H](OCc2ccccc2)CN1C(=O)[C@@H](NC(=O)[C@@H](NC(=O)[C@@H](CCC(=O)O)NC(=O)[C@H](CC(=O)O)NC(C)=O)[C@@H](C)CC)C(C)C)C(=O)N[C@@H](C)C1CCCCC1` (Ac-D[dE]IV[Hyp](Bn)[azaNva]-X7), the IC50 came out at 0.42 µM. The same measure, in the same setting: to `O=C(O)[C@H](Cc1ccccc1)N(Cc1cccc(C(F)(F)F)c1)C(=O)c1ccc(Cl)cc1Cl` belongs 1.7 µM; to `COc1ccc2c(O[C@@H]3C[C@H]4C(=O)N[C@]5(C(=O)O)C[C@H]5/C=C\CCCCC[C@H](NC(=O)OC(C)(C)C)C(=O)N4C3)cc(-c3csc(NC(C)=O)n3)nc2c1`, 0.0048 µM; to `CCc1ccc(C(=O)CC(=O)C(=O)O)cc1`, 47 µM. Still for that read-out and setting: to `CCNc1nc(-c2cc(O[C@@H]3C[C@H]4C(=O)N[C@]5(C(=O)O)C[C@H]5/C=C\CCCCC[C@H](NC(=O)OC5CCCC5)C(=O)N4C3)c3ccc(OC)cc3n2)cs1` belongs 0.0029 µM. Take `CCCN(NC(=O)[C@@H]1C[C@@H](OCc2ccccc2)CN1C(=O)[C@@H](NC(=O)[C@@H](NC(=O)[C@@H](CCC(=O)O)NC(=O)[C@H](CC(=O)O)NC(C)=O)[C@@H](C)CC)C(C)C)C(=O)NN(C)c1ccccc1` (Ac-D[dE]IV[Hyp](Bn)-X8): the IC50 turned out to be 0.48 µM. Take `COc1ccc2c(O[C@@H]3C[C@H]4C(=O)N[C@]5(C(=O)O)C[C@H]5/C=C\CCCCC[C@H](NC(=O)OC5CCCC5)C(=O)N4C3)cc(-c3csc(NC(C)=O)n3)nc2c1`: half-maximal inhibition (IC50) required 0.0025 µM.
